Consider 18 molecules from patent publication US8574563B2 (Bristol-Myers Squibb Company, priority 2006, dated 2013).

pEC50: −log10 of the molar value.

The test system of the assay is HCV 1b-377-neo replicon cells. Kind of assay: HCV replicon assay, HCV 1b-377-neo replicon cells (1b FRET). The conditions noted are these: Hepatitis C virus, HCV 1b-377-neo replicon cells; HCV 1b genotype; read-out: EC50 range against HCV 1b (Table 2, Range). The class given is cell-based, Hepatitis C virus genotype 1b. A digest of the protocol:
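Compounds tested in HCV genotype 1b-377-neo replicon cells with a FRET read-out. Cells resistant to a reference NS5A inhibitor through a Y2065H NS5A mutation were run alongside wild-type cells.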
For orientation: A replicon is a self-replicating genome or part of one, used to study replication in cells.
For orientation: pEC50 means −log10 of the EC50, conventionally taken in molar units. In the case of `COC(=O)NCC(=O)N1[C@@H]2C[C@@H]2C[C@H]1c1nc(-c2ccc(-c3ccc(-c4c[nH]c([C@@H]5C[C@H]6C[C@H]6N5C(=O)CNC(=O)OC)n4)cc3)cc2)c[nH]1` [Example M134, methyl (2-((1R,3S,5R)-3-(4-(4′-(2-((1R,3S,5R)-2-(((methoxy-carbonyl)amino)acetyl)-2-azabicyclo[3.1.0]hex-3-yl)-1H-imidazol-4-yl)-4-biphenylyl)-1H-imidazol-2-yl)-2-azabicyclo[3.1.0]hex-2-yl)-2-oxoethyl)carbamate], the pEC50 is 7.00 to 9.00.
For the molecule `COC(=O)N[C@H](C(=O)N1[C@@H]2C[C@@H]2C[C@H]1c1nc(-c2ccc(-c3ccc(-c4c[nH]c([C@@H]5C[C@H]6C[C@H]6N5C(=O)[C@@H](NC(=O)OC)C5CC5)n4)cc3)cc2)c[nH]1)C1CC1` [Example M135, dimethyl (4,4′-biphenyl-diylbis(1H-imidazole-4,2-diyl(1R,3S,5R)-2-azabicyclo[3.1.0]hexane-3,2-diyl((1S)-1-cyclopropyl-2-oxo-2,1-ethanediyl)))biscarbamate], the pEC50 is 9.00 to 12.00.
`COC(=O)N[C@@H](C(=O)N1[C@@H]2C[C@@H]2C[C@H]1c1nc(-c2ccc(-c3ccc(-c4c[nH]c([C@@H]5C[C@H]6C[C@H]6N5C(=O)[C@H](NC(=O)OC)C(C)C)n4)cc3)cc2)c[nH]1)C(C)C` [Example M136, methyl ((1R)-1-(((1R,3S,5R)-3-(4-(4′-(2-((1R,3S,5R)-2-((2R)-2-((methoxycarbonyl)amino)-3-methylbutanoyl)-2-azabicyclo[3.1.0]hex-3-yl)-1H-imidazol-4-yl)-4-biphenylyl)-1H-imidazol-2-yl)-2-azabicyclo[3.1.0]hex-2-yl)carbonyl)-2-methylpropyl)carbamate]: the pEC50 is 7.00 to 9.00.
The value for `COC(=O)N[C@@H](C(=O)N1[C@@H]2C[C@@H]2C[C@H]1c1nc(-c2ccc(-c3ccc(-c4c[nH]c([C@@H]5C[C@H]6C[C@H]6N5C(=O)[C@H](NC(=O)OC)c5ccccc5)n4)cc3)cc2)c[nH]1)c1ccccc1` [Example M137, dimethyl (4,4′-biphenyl-diylbis(1H-imidazole-4,2-diyl(1R,3S,5R)-2-azabicyclo[3.1.0]hexane-3,2-diyl((1R)-2-oxo-1-phenyl-2,1-ethanediyl)))biscarbamate] was 9.00 to 12.00; that for `COC(=O)N[C@H](C(=O)N1[C@@H]2C[C@@H]2C[C@H]1c1ncc(-c2ccc(-c3ccc(-c4cnc([C@@H]5C[C@H]6C[C@H]6N5C(C)=O)[nH]4)cc3)cc2)[nH]1)C(C)C` [Example M138, methyl ((1S)-1-(((1R,3S,5R)-3-(4-(4′-(2-((1R,3S,5R)-2-acetyl-2-azabicyclo[3.1.0]hex-3-yl)-1H-imidazol-4-yl)-4-biphenylyl)-1H-imidazol-2-yl)-2-azabicyclo[3.1.0]hex-2-yl)carbonyl)-2-methylpropyl)carbamate] was 9.00 to 12.00; that for `COC(=O)N[C@H](C(=O)N1[C@@H]2C[C@@H]2C[C@H]1c1ncc(-c2ccc(-c3ccc(-c4cnc([C@@H]5C[C@H]6C[C@H]6N5C(=O)CCCC[C@@H]5SC[C@@H]6NC(=O)N[C@@H]65)[nH]4)cc3)cc2)[nH]1)C(C)C` [Example M139] was 9.00 to 12.00.
The value for `CC(=O)N[C@H](C(=O)N1[C@@H]2C[C@@H]2C[C@H]1c1ncc(-c2ccc(-c3ccc(-c4cnc([C@@H]5C[C@H]6C[C@H]6N5C(=O)[C@@H](NC(C)=O)C(C)C)[nH]4)cc3)cc2)[nH]1)C(C)C` [Example M140, N-((1S)-1-(((1R,3S,5R)-3-(4-(4′-(2-((1R,3S,5R)-2-((2S)-2-acetamido-3-methylbutanoyl)-2-azabicyclo[3.1.0]hex-3-yl)-1H-imidazol-4-yl)-4-biphenylyl)-1H-imidazol-2-yl)-2-azabicyclo[3.1.0]hex-2-yl)carbonyl)-2-methylpropyl)acetamide] was 9.00 to 12.00; that for `CC(C)[C@H](N)C(=O)N1[C@@H]2C[C@@H]2C[C@H]1c1nc(-c2ccc(-c3ccc(-c4cnc([C@@H]5C[C@H]6C[C@H]6N5C(=O)[C@@H](N)C(C)C)[nH]4)cc3)cc2)c[nH]1` [Example M140a-i, (2S)-1-((1R,3S,5R)-3-(4-(4′-(2-((1R,3S,5R)-2-((2S)-2-amino-3-methylbutanoyl)-2-azabicyclo[3.1.0]hex-3-yl)-1H-imidazol-5-yl)-4-biphenylyl)-1H-imidazol-2-yl)-2-azabicyclo[3.1.0]hex-2-yl)-3-methyl-1-oxo-2-butanamine] was 7.00 to 9.00; that for `CC(C)[C@H](NC(=O)OC(C)(C)C)C(=O)N1[C@@H]2C[C@@H]2C[C@H]1c1nc(-c2ccc(-c3ccc(-c4c[nH]c([C@@H]5C[C@H]6C[C@H]6N5C(=O)[C@@H](NC(=O)OC(C)(C)C)C(C)C)n4)cc3)cc2)c[nH]1` [Example M140a-ii, tert-butyl ((1S)-1-(((1R,3S,5R)-3-(4-(4′-(2-((1R,3S,5R)-2-((2S)-2-((tert-butoxycarbonyl)amino)-3-methylbutanoyl)-2-azabicyclo[3.1.0]hex-3-yl)-1H-imidazol-4-yl)-4-biphenylyl)-1H-imidazol-2-yl)-2-azabicyclo[3.1.0]hex-2-yl)carbonyl)-2-methylpropyl)carbamate] was 7.00 to 9.00.
The value for `CC(C)[C@H](NC(=O)C1CC1)C(=O)N1[C@@H]2C[C@@H]2C[C@H]1c1ncc(-c2ccc(-c3ccc(-c4cnc([C@@H]5C[C@H]6C[C@H]6N5C(=O)[C@@H](NC(=O)C5CC5)C(C)C)[nH]4)cc3)cc2)[nH]1` [Example M141, N-((1S)-1-(((1R,3S,5R)-3-(4-(4′-(2-((1R,3S,5R)-2-((2S)-2-((cyclopropylcarbonyl)amino)-3-methylbutanoyl)-2-azabicyclo[3.1.0]hex-3-yl)-1H-imidazol-4-yl)-4-biphenylyl)-1H-imidazol-2-yl)-2-azabicyclo[3.1.0]hex-2-yl)carbonyl)-2-methylpropyl)cyclopropanecarbamate] was 7.00 to 9.00.
Regarding `CC(C)[C@@H](NC(=O)OC(C)(C)C)C(=O)N1[C@@H]2C[C@@H]2C[C@H]1c1nc(-c2ccc(-c3ccc(-c4c[nH]c([C@@H]5C[C@H]6C[C@H]6N5C(=O)[C@H](NC(=O)OC(C)(C)C)C(C)C)n4)cc3)cc2)c[nH]1` [Example M142, tert-butyl ((1R)-1-(((1R,3S,5R)-3-(4-(4′-(2-((1R,3S,5R)-2-((2R)-2-((tert-butoxycarbonyl)amino)-3-methylbutanoyl)-2-azabicyclo[3.1.0]hex-3-yl)-1H-imidazol-4-yl)-4-biphenylyl)-1H-imidazol-2-yl)-2-azabicyclo[3.1.0]hex-2-yl)carbonyl)-2-methylpropyl)carbamate], the pEC50 was 7.00 to 9.00.
With `CC(=O)N[C@@H](C(=O)N1[C@@H]2C[C@@H]2C[C@H]1c1nc(-c2ccc(-c3ccc(-c4c[nH]c([C@@H]5C[C@H]6C[C@H]6N5C(=O)[C@H](NC(C)=O)C(C)C)n4)cc3)cc2)c[nH]1)C(C)C` [Example M143, N-((1R)-1-(((1R,3S,5R)-3-(4-(4′-(2-((1R,3S,5R)-2-((2R)-2-acetamido-3-methylbutanoyl)-2-azabicyclo[3.1.0]hex-3-yl)-1H-imidazol-4-yl)-4-biphenylyl)-1H-imidazol-2-yl)-2-azabicyclo[3.1.0]hex-2-yl)carbonyl)-2-methylpropyl)acetamide] the figure was 7.00 to 9.00; with `CC(C)[C@H](Nc1ncccn1)C(=O)N1[C@@H]2C[C@@H]2C[C@H]1c1ncc(-c2ccc(-c3ccc(-c4cnc([C@@H]5C[C@H]6C[C@H]6N5C(=O)[C@@H](Nc5ncccn5)C(C)C)[nH]4)cc3)cc2)[nH]1` [Example M144, N,N′-(4,4′-biphenyldiylbis(1H-imidazole-4,2-diyl(1R,3S,5R)-2-azabicyclo[3.1.0]hexane-3,2-diyl((2S)-3-methyl-1-oxo-1,2-butanediyl)))di(2-pyrimidinamine)], 9.00 to 12.00; with `COC(=O)N[C@H](C(=O)N1CC2(CC2)C[C@H]1c1ncc(-c2ccc(-c3ccc(-c4cnc([C@@H]5CC6(CC6)CN5C(=O)[C@@H](NC(=O)OC)C(C)C)[nH]4)cc3)cc2)[nH]1)C(C)C` [Example M145], 9.00 to 12.00.
In the case of `COC(=O)NCC(=O)N1CC2(CC2)C[C@H]1c1nc(-c2ccc(-c3ccc(-c4c[nH]c([C@@H]5CC6(CC6)CN5C(=O)CNC(=O)OC)n4)cc3)cc2)c[nH]1` [Example M146, methyl (2-((6S)-6-(4-(4′-(2-((6S)-5-(((methoxycarbonyl)amino)acetyl)-5-azaspiro[2.4]hept-6-yl)-1H-imidazol-4-yl)-4-biphenylyl)-1H-imidazol-2-yl)-5-azaspiro[2.4]hept-5-yl)-2-oxoethyl)carbamate], the pEC50 is 9.00 to 12.00.
`COC(=O)N[C@@H](C)C(=O)N1CC2(CC2)C[C@H]1c1nc(-c2ccc(-c3ccc(-c4c[nH]c([C@@H]5CC6(CC6)CN5C(=O)[C@H](C)NC(=O)OC)n4)cc3)cc2)c[nH]1` [Example M147, methyl ((1S)-2-((6S)-6-(4-(4′-(2-((6S)-5-(N-(methoxycarbonyl)-L-alanyl)-5-azaspiro[2.4]hept-6-yl)-1H-imidazol-4-yl)-4-biphenylyl)-1H-imidazol-2-yl)-5-azaspiro[2.4]hept-5-yl)-1-methyl-2-oxoethyl)carbamate]: the pEC50 is 9.00 to 12.00.
The value for `CC[C@H](NC(=O)OC)C(=O)N1CC2(CC2)C[C@H]1c1nc(-c2ccc(-c3ccc(-c4c[nH]c([C@@H]5CC6(CC6)CN5C(=O)[C@H](CC)NC(=O)OC)n4)cc3)cc2)c[nH]1` [Example M148, dimethyl (4,4′-biphenyldiylbis(1H-imidazole-4,2-diyl(6S)-5-azaspiro[2.4]heptane-6,5-diyl((2S)-1-oxo-1,2-butanediyl)))biscarbamate] was 9.00 to 12.00; that for `COC(=O)N[C@@H](C(=O)N1CC2(CC2)C[C@H]1c1nc(-c2ccc(-c3ccc(-c4c[nH]c([C@@H]5CC6(CC6)CN5C(=O)[C@H](NC(=O)OC)C(C)C)n4)cc3)cc2)c[nH]1)C(C)C` [Example M149, methyl ((1R)-1-(((6S)-6-(4-(4′-(2-((6S)-5-((2R)-2-((methoxycarbonyl)amino)-3-methylbutanoyl)-5-azaspiro[2.4]hept-6-yl)-1H-imidazol-4-yl)-4-biphenylyl)-1H-imidazol-2-yl)-5-azaspiro[2.4]hept-5-yl)carbonyl)-2-methylpropyl)carbamate] was 7.00 to 9.00.
